Results from US7473711B2, “Androgen modulators” (Pfizer Inc., priority 2004, dated 2009).

biological target: T1, androgen receptor in MDA-MB453-MMTV clone 54-19 cells (Homo sapiens, UniProt P10275); assay: AR antagonist cell assay (MMTV-luciferase reporter, 100 pM DHT); assay type: cell-based; conditions: read-out: AR Cell IC50; MDA-MB453-MMTV clone 54-19, inhibition of 100 pM DHT induced luciferase, 17 hr; mean of multiple tests
T1 sequence (P10275 1-920 Q868H): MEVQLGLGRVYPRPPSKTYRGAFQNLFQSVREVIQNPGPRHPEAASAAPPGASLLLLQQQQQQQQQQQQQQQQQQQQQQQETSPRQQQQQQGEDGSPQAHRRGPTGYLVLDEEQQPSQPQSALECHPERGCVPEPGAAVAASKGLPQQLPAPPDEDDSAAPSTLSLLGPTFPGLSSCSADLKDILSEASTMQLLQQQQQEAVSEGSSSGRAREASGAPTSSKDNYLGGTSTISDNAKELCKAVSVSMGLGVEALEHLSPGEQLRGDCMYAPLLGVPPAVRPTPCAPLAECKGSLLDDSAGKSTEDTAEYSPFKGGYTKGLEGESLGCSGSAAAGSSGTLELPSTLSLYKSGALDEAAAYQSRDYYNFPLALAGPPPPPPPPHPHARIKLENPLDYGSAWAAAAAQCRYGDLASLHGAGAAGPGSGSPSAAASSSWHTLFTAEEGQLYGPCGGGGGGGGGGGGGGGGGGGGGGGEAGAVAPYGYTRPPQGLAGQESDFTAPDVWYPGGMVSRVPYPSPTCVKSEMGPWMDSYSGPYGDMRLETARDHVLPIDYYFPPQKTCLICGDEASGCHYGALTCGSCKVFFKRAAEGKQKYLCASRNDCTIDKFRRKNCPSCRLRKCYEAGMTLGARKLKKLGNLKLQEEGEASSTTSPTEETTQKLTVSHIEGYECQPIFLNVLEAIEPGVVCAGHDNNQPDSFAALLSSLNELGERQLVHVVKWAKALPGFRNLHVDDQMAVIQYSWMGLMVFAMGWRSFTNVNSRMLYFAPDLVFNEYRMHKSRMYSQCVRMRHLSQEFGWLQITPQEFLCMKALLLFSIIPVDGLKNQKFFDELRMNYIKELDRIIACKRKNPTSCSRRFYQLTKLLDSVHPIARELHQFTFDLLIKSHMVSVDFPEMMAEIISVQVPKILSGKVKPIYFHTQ
Procedure: The compounds ability to antagonize the effects of androgen on the androgen receptor were determined in a whole cell assay as described immediately below.
Experimental Procedure for AR Antagonist Cell Assay
Cell line: MDA-MB453-MMTV clone 54-19. This cell line is a stable transfected cell line with MDA-MB453 cell background (a human breast tumor cell line expressing androgen receptor). A MMTV minimal promoter containing ARE was first cloned in front of a firefly luciferase reporter gene. Then the cascade was cloned into transfection vector pUV120puro. Electroporation method was used for transfecting MDA-MB-453 cell. Puromycin resistant stable cell line was selected. Cell Culture Media and Reagents:
Culture medium: DMEM (high glucose, Gibco cat #: 11960-044), 10% FBS, and 1% L-glutamine
Plating medium: DMEM (phenol red free), 10% charcoal treated HyClone serum, 1% L-glutamine
Assay medium: DMEM (phenol red free), 1% charcoal treated HyClone serum, 1% L-glutamine, and 1% penicillin/streptomycin
3X luciferase buffer: 2% beta-mercaptoethanol, 0.6% ATP, 0.0135% luciferine in cell lysis buffer
• 1. Cells are maintained in culture medium, splitting cells when they reach 80-90% confluence • 2. To test compounds, 10,000 cells/well are plated to opaque 96 cell culture plate in 100 ul/well plating medium, culture for overnight at 37° C. in cell culture incubator • 3. Carefully remove plating medium, then add 80 ul/well of pre-warmed assay medium, add 10 ul/well testing compound (final concentration at) 1000 nM, 200 nM, 40 nM, 8 nM, 1.6 nM, and 0.32 nM), incubate at 37° C. for 30 minutes • 4. Add 10 ul/well freshly prepared DHT (final concentration at 100 pM) to each well, incubate at 37° C. for 17 hr (overnight) • 5. Add 50 ul/well 3X luciferase buffer, incubate at room temperature for 5 minutes, then count on Luminometer
The fold induction over background by 100 pM DHT in the absence of testing compounds is standardized as 100% and experimental result is expressed as percentage of inhibition by testing compounds.
The results are reported as the mean of multiple tests as described below (the numbers of tests are indicated in the footnote). N.D. denotes that the compound was not tested.

In order of falling IC50:
1. N#Cc1ccc(OC(CO)COc2ccccc2)cc1C(F)(F)F (stereo not drawn) [Example 28, 4-(1-Hydroxymethyl-2-phenoxy-ethoxy)-2-trifluoromethyl-benzonitrile]  69 nM
2. N#Cc1ccc(OCCCCCOc2ccc(C#N)c(C(F)(F)F)c2)cc1C(F)(F)F [Example 24]  64 nM
3. COCC(COc1ccccc1)Oc1ccc(C#N)c(C(F)(F)F)c1 (stereo not drawn) [Example 27, 4-(1-Methoxymethyl-2-phenoxy-ethoxy)-2-trifluoromethyl-benzonitrile]  19 nM
